# PubChem BioAssay AID1195 (EPA DSSTox, 2008)
# System: human maximum recommended daily dose, FDA database
# Test: DSSTox (FDAMDD) FDA Maximum (Recommended) Daily Dose Database
# Settings: stronger effect = lower value
# Summary of the method: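 MRDD values come from clinical trials with daily oral dosing, usually for 3–12 months, for the average adult, in mg/day converted to mg/kg-bw/day assuming 60 kg. Antineoplastic mg/m2 doses are divided by 37. Activity score maps log10(1/MRDD mmol) onto 1–100.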
# [1] = TherapeuticCategory: antidepressant
# [2] = TherapeuticCategory: antibacterial
# [3] = TherapeuticCategory: antineoplastic
# [4] = TherapeuticCategory: diuretic, antihypertensive
# [5] = TherapeuticCategory: anxiolytic
compound,measurement,setting,value
Cc1cc2c(C(C)C)c(O)c(O)c(C=O)c2c(O)c1-c1c(C)cc2c(C(C)C)c(O)c(O)c(C=O)c2c1O,maximum recommended daily dose (mmol/kg-bw/day),TherapeuticCategory: none,0.000642
CN(C)CCCN1c2ccccc2C(C)(C)c2ccccc21,maximum recommended daily dose (mmol/kg-bw/day),[1],0.034
CN(C)CC/C=C1\c2ccccc2COc2ccc(CC(=O)O)cc21,maximum recommended daily dose (mmol/kg-bw/day),"TherapeuticCategory: antihistaminic, antiallergic",0.000987
CN[C@@H]1[C@@H](O)[C@@H](O[C@@H]2[C@@H](O)[C@H](O[C@H]3O[C@H](C(C)N)CC[C@H]3N)[C@@H](N)C[C@H]2N)OC[C@]1(C)O (stereo partly specified),maximum recommended daily dose (mmol/kg-bw/day),[2],0.00647
NCc1ccccc1CC(=O)N[C@@H]1C(=O)N2C(C(=O)O)=C(CSc3nnnn3CC(=O)O)CS[C@H]12,maximum recommended daily dose (mmol/kg-bw/day),[2],0.0641
CC(=O)CC(c1ccc([N+](=O)[O-])cc1)c1c(O)c2ccccc2oc1=O (stereo unspecified),maximum recommended daily dose (mmol/kg-bw/day),TherapeuticCategory: anticoagulant,0.000566
O=C(O)Cc1sc(-c2ccccc2)nc1-c1ccc(Cl)cc1,maximum recommended daily dose (mmol/kg-bw/day),TherapeuticCategory: anti inflammatory,0.0455
CC(C)(O/N=C(\C(=O)N[C@@H]1C(=O)N2C(C(=O)[O-])=C(C[n+]3ccccc3)CS[C@H]12)c1csc(N)n1)C(=O)O,maximum recommended daily dose (mmol/kg-bw/day),[2],0.243
CN1CCN2c3ncccc3Cc3ccccc3C2C1 (stereo unspecified),maximum recommended daily dose (mmol/kg-bw/day),[1],0.00283
C=C1C[C@@H]2[C@H](CC[C@]3(C)C(=O)CC[C@@H]23)[C@@]2(C)C=CC(=O)C=C12,maximum recommended daily dose (mmol/kg-bw/day),[3],0.00135
NC(=O)CS(=O)C(c1ccccc1)c1ccccc1 (stereo unspecified),maximum recommended daily dose (mmol/kg-bw/day),"TherapeuticCategory: CNS stimulant, adrenergic",0.0122
CN(C(=O)CC(=O)N(C)c1c(I)c(C(=O)NC(CO)C(O)CO)c(I)c(C(=O)NC(CO)C(O)CO)c1I)c1c(I)c(C(=O)NC(CO)C(O)CO)c(I)c(C(=O)NC(CO)C(O)CO)c1I (stereo unspecified),maximum recommended daily dose (mmol/kg-bw/day),TherapeuticCategory: diagnostic aid,0.0615
CN(C)CCC(c1ccccc1)c1ccccn1 (stereo unspecified),maximum recommended daily dose (mmol/kg-bw/day),"TherapeuticCategory: antihistaminic, antipruritic",0.0026
COc1cccc2c1C(=O)c1c(O)c3c(c(O)c1C2=O)C[C@@](O)(/C(C)=N/NC(=O)c1ccccc1)C[C@@H]3O[C@H]1C[C@H](N)[C@H](O)[C@H](C)O1,maximum recommended daily dose (mmol/kg-bw/day),[3],0.0103
Cc1nc(N/C(N)=N/S(=O)(=O)c2ccc(N)cc2)oc1C,maximum recommended daily dose (mmol/kg-bw/day),[2],0.129
CCCCC[C@H](O)/C=C/[C@H]1[C@H](O)CC(=O)[C@@H]1C/C=C\CCCC(=O)O,maximum recommended daily dose (mmol/kg-bw/day),"TherapeuticCategory: oxytocic, abortifacient",7.09e-05
CN(C)CCC=C1c2ccccc2CCc2ccccc21,maximum recommended daily dose (mmol/kg-bw/day),[1],0.018
CN(C)CCCN1c2ccccc2CCc2ccc(Cl)cc21,maximum recommended daily dose (mmol/kg-bw/day),[1],0.0132
CC(C)NCC(O)COc1cccc2ccccc12 (stereo unspecified),maximum recommended daily dose (mmol/kg-bw/day),"TherapeuticCategory: antihypertensive, antianginal, antiarrhythmic",0.0413
CC(C)(C#N)c1cc(Cn2cncn2)cc(C(C)(C)C#N)c1,maximum recommended daily dose (mmol/kg-bw/day),TherapeuticCategory: androgen,5.69e-05
Cc1nnc(SCC2=C(C(=O)O)N3C(=O)[C@@H](NC(=O)Cn4cnnn4)[C@H]3SC2)s1,maximum recommended daily dose (mmol/kg-bw/day),[2],0.147
NS(=O)(=O)c1cc2c(cc1Cl)NC(CSCc1ccccc1)=NS2(=O)=O,maximum recommended daily dose (mmol/kg-bw/day),[4],0.00771
CCOc1ccc2nc(S(N)(=O)=O)sc2c1,maximum recommended daily dose (mmol/kg-bw/day),"TherapeuticCategory: carbonic anhydrase inhibitor, diuretic",0.0322
CN(C)C(=N)N=C(N)N,maximum recommended daily dose (mmol/kg-bw/day),TherapeuticCategory: antidiabetic,0.387
CCN1C(=O)NC(c2ccccc2)C1=O (stereo unspecified),maximum recommended daily dose (mmol/kg-bw/day),TherapeuticCategory: anticonvulsant,0.245
NCCS,maximum recommended daily dose (mmol/kg-bw/day),TherapeuticCategory: antidote to acetaminophen,0.432
CCc1cc2c(s1)N(C)C(=O)CN=C2c1ccccc1Cl,maximum recommended daily dose (mmol/kg-bw/day),[5],0.00314
NC[C@@H]1O[C@H](O[C@H]2[C@@H](O)[C@H](O[C@@H]3[C@@H](O)[C@H](N)C[C@H](N)[C@H]3O[C@H]3O[C@H](CO)[C@@H](O)C[C@H]3N)O[C@@H]2CO)[C@H](N)[C@@H](O)[C@@H]1O[C@H]1O[C@H](CO)[C@@H](O)[C@H](O)[C@@H]1O,maximum recommended daily dose (mmol/kg-bw/day),[2],0.0219
CCN(C(C)=O)c1cccc(-c2ccnc3c(C#N)cnn23)c1,maximum recommended daily dose (mmol/kg-bw/day),"TherapeuticCategory: hypnotic, sedative",0.00164
CCN(CC)C(=S)S,maximum recommended daily dose (mmol/kg-bw/day),"TherapeuticCategory: immunomodulator, chelating agent",0.0584
CC1(C)[C@@H](OC(=O)CCC(=O)O)CC[C@]2(C)[C@H]3C(=O)C=C4[C@@H]5C[C@@](C)(C(=O)O)CC[C@]5(C)CC[C@@]4(C)[C@]3(C)CC[C@@H]12,maximum recommended daily dose (mmol/kg-bw/day),TherapeuticCategory: antiulcerative,0.00876
Nc1ncnc2c1ncn2[C@@H]1O[C@H](COP(=O)(O)OP(=O)(O)OP(=O)(O)O)[C@@H](O)[C@H]1O,maximum recommended daily dose (mmol/kg-bw/day),TherapeuticCategory: coenzyme,0.000394
CCCC(=O)O[C@H]1[C@H](C)O[C@@H](O[C@H]2[C@H](N(C)C)[C@@H](O)[C@H](O[C@H]3[C@@H](CC=O)C[C@@H](C)[C@@H](O)/C=C/C=C/C[C@@H](C)OC(=O)C[C@@H](O)[C@@H]3OC)O[C@@H]2C)C[C@@]1(C)OC(=O)CC,maximum recommended daily dose (mmol/kg-bw/day),[2],0.0242
NS(=O)(=O)c1cc2c(cc1Cl)NC(C1CC3C=CC1C3)NS2(=O)=O (stereo unspecified),maximum recommended daily dose (mmol/kg-bw/day),[4],0.000256
CCCC(C)(COC(N)=O)COC(N)=O,maximum recommended daily dose (mmol/kg-bw/day),[5],0.183
COc1ccc2c(c1)N(C[C@H](C)CN(C)C)c1ccccc1S2,maximum recommended daily dose (mmol/kg-bw/day),TherapeuticCategory: analgesic,0.0101
